Reference: patent publication US20040127446A1 (priority 1992, published 2004)
[invAb] = 3' inverted deoxyabasic cap; [2NH2-N] = 2'-deoxy-2'-amino ribonucleotide (N: the base); [amino-N] = 2'-deoxy-2'-amino nucleotide (N: the base); [I] = hypoxanthine (inosine); m = 2'-O-methyl; r = 2'-OH (RNA)

These substances were tested on plus strand HCV RNA. Conditions: plus strand (+) HCV site, 50 mM Tris-Cl, pH 8.0, 40 mM Mg2+ at 37°, trace substrate, enzymatic nucleic acid concentration of 500 nM or greater.
Type: biochemical, Hepatitis C virus
“22719 (UGGAAGAUGAUGGCAUGCACUAUGCGCGACUGAGA; sugars from the 5' end mmmmmmmmrrrmmmmmrmmmmmmmmmrmmmmmmmm, [invAb] at 3' end, backbone not given here) [compound 22719]” was tested, and the “% Substrate Cleaved in 3 hours” value was 69.88%.

The substances below were run on minus strand HCV RNA. Conditions: minus strand (−) HCV site, 50 mM Tris-Cl, pH 8.0, 40 mM Mg2+ at 37°, trace substrate, enzymatic nucleic acid concentration of 500 nM or greater.
Type: biochemical, Hepatitis C virus
With “22724 (GGAUGGUUGAUGGCAUGCACUAUGCGCGAGACAGG; sugars from the 5' end mmmmmmmmrrrmmmmmrmmmmmmmmmrmmmmmmmm, [invAb] at 3' end, backbone not given here) [compound 22724]” the “% Substrate Cleaved in 3 hours” value was 65.16%. For “22725 (GGAAAAGUGAUGGCAUGCACUAUGCGCGAACAGGA; sugars from the 5' end mmmmmmmmrrrmmmmmrmmmmmmmmmrmmmmmmmm, [invAb] at 3' end, backbone not given here) [compound 22725]”, the “% Substrate Cleaved in 3 hours” value was 94.66%. For “22726 (AGAAGAAUGAUGGCAUGCACUAUGCGCGACGAGGA; sugars from the 5' end mmmmmmmmrrrmmmmmrmmmmmmmmmrmmmmmmmm, [invAb] at 3' end, backbone not given here) [compound 22726]”, the “% Substrate Cleaved in 3 hours” value was 82.14%. With “22727 (GGACGAGUGAUGGCAUGCACUAUGCGCGACUUUGU; sugars from the 5' end mmmmmmmmrrrmmmmmrmmmmmmmmmrmmmmmmmm, [invAb] at 3' end, backbone not given here) [compound 22727]” the “% Substrate Cleaved in 3 hours” value was 67.20%. In the case of “22728 (GGUAGGUUGAUGGCAUGCACUAUGCGCGAAGUGGC; sugars from the 5' end mmmmmmmmrrrmmmmmrmmmmmmmmmrmmmmmmmm, [invAb] at 3' end, backbone not given here) [compound 22728]”, the “% Substrate Cleaved in 3 hours” value is reported as 81.06%. With “22752 (AAGAGGAGCCGAAAGGCGAGUGAGGUCUGCGGCGA; 2'-O-methyl at 1, 2, 3, 4, 5, 6, 7, 8, 9, 10, 11, 12, 13, 14, 15, 16, [amino-N] at 17, 27, [invAb] at 3' end, other sugars and backbone not given here) [compound 22752]” the “% Substrate Cleaved in 3 hours” value was 27.83%. For “22753 (UGGAAGAGCCGAAAGGCGAGUGAGGUCUACUGAGA; 2'-O-methyl at 1, 2, 3, 4, 5, 6, 7, 8, 9, 10, 11, 12, 13, 14, 15, 16, [2NH2-N] at 17, 27, [invAb] at 3' end, other sugars and backbone not given here) [compound 22753]”, the “% Substrate Cleaved in 3 hours” value was 89.39%. In the case of “22754 (AGGAGUAGCCGAAAGGCGAGUGAGGUCUGUGGAGG; 2'-O-methyl at 1, 2, 3, 4, 5, 6, 7, 8, 9, 10, 11, 12, 13, 14, 15, 16, [2NH2-N] at 17, 27, [invAb] at 3' end, other sugars and backbone not given here) [compound 22754]”, the “% Substrate Cleaved in 3 hours” value is reported as 50.40%. In the case of “22755 (CGAAGCAGCCGAAAGGCGAGUGAGGUCUAUGUGGA; 2'-O-methyl at 1, 2, 3, 4, 5, 6, 7, 8, 9, 10, 11, 12, 13, 14, 15, 16, [2NH2-N] at 17, 27, [invAb] at 3' end, other sugars and backbone not given here) [compound 22755]”, the “% Substrate Cleaved in 3 hours” value is reported as 81.10%. “22756 (UGGAAGAGCCGAAAGGCGAGUGAGGUCUGGCGUGA; 2'-O-methyl at 1, 2, 3, 4, 5, 6, 7, 8, 9, 10, 11, 12, 13, 14, 15, 16, [2NH2-N] at 17, 27, [invAb] at 3' end, other sugars and backbone not given here) [compound 22756]” was tested, and the “% Substrate Cleaved in 3 hours” value was 73.47%. With “22780 (GACACUGCUGAUGAGGCCGUUAGGCCGAANACACCA; ribozyme; 2'-O-methyl at 1, 2, 3, 4, 5, 6, 7, 15, 16, 17, 18, 19, 20, 21, 22, 23, 24, 25, 26, 31, 32, 33, 34, 35, 36, [I] at 30, [invAb] at 3' end, other sugars and backbone not given here) [compound 22780]” the “% Substrate Cleaved in 3 hours” value was 87.33%. “22781 (GAGAUGACUGAUGAGGCCGUUAGGCCGAANGCGAAG; 2'-O-methyl at 1, 2, 3, 4, 5, 6, 7, 15, 16, 17, 18, 19, 20, 21, 22, 23, 24, 25, 26, 31, 32, 33, 34, 35, 36, [I] at 30, [invAb] at 3' end, other sugars and backbone not given here) [compound 22781]” was tested, and the “% Substrate Cleaved in 3 hours” value was 70.67%. In the case of “22782 (GGAUGAGCUGAUGAGGCCGUUAGGCCGAANAGAGGU; 2'-O-methyl at 1, 2, 3, 4, 5, 6, 7, 15, 16, 17, 18, 19, 20, 21, 22, 23, 24, 25, 26, 31, 32, 33, 34, 35, 36, [I] at 30, [invAb] at 3' end, other sugars and backbone not given here) [compound 22782]”, the “% Substrate Cleaved in 3 hours” value is reported as 78.83%. “22783 (UGUGCAGCUGAUGAGGCCGUUAGGCCGAANGAUGAA; 2'-O-methyl at 1, 2, 3, 4, 5, 6, 7, 15, 16, 17, 18, 19, 20, 21, 22, 23, 24, 25, 26, 31, 32, 33, 34, 35, 36, [I] at 30, [invAb] at 3' end, other sugars and backbone not given here) [compound 22783]” was tested, and the “% Substrate Cleaved in 3 hours” value was 86.93%. For “22784 (UGGAUGACUGAUGAGGCCGUUAGGCCGAANCUGUUG; 2'-O-methyl at 1, 2, 3, 4, 5, 6, 7, 15, 16, 17, 18, 19, 20, 21, 22, 23, 24, 25, 26, 31, 32, 33, 34, 35, 36, [I] at 30, [invAb] at 3' end, other sugars and backbone not given here) [compound 22784]”, the “% Substrate Cleaved in 3 hours” value was 90.41%. “22948 (GCGAGCCCUGAUGAGGCCGUUAGGCCGAAACGAGUC; 2'-O-methyl at 1, 2, 3, 4, 5, 6, 7, 15, 16, 17, 18, 19, 20, 21, 22, 23, 24, 25, 26, 31, 32, 33, 34, 35, 36, [invAb] at 3' end, other sugars and backbone not given here) [compound 22948]” was tested, and the “% Substrate Cleaved in 3 hours” value was 88.34%. With “22949 (GCUGGAACUGAUGAGGCCGUUAGGCCGAAACACUGA; 2'-O-methyl at 1, 2, 3, 4, 5, 6, 7, 15, 16, 17, 18, 19, 20, 21, 22, 23, 24, 25, 26, 31, 32, 33, 34, 35, 36, [invAb] at 3' end, other sugars and backbone not given here) [compound 22949]” the “% Substrate Cleaved in 3 hours” value was 89.16%. “22950 (AGGAUGACUGAUGAGGCCGUUAGGCCGAAAGAGAGG; 2'-O-methyl at 1, 2, 3, 4, 5, 6, 7, 15, 16, 17, 18, 19, 20, 21, 22, 23, 24, 25, 26, 31, 32, 33, 34, 35, 36, [invAb] at 3' end, other sugars and backbone not given here) [compound 22950]” was tested, and the “% Substrate Cleaved in 3 hours” value was 83.43%. In the case of “22951 (UGAGGAGCUGAUGAGGCCGUUAGGCCGAAACGUGGA; 2'-O-methyl at 1, 2, 3, 4, 5, 6, 7, 15, 16, 17, 18, 19, 20, 21, 22, 23, 24, 25, 26, 31, 32, 33, 34, 35, 36, [invAb] at 3' end, other sugars and backbone not given here) [compound 22951]”, the “% Substrate Cleaved in 3 hours” value is reported as 83.25%. In the case of “22952 (GACUGGACUGAUGAGGCCGUUAGGCCGAAAUGCACG; 2'-O-methyl at 1, 2, 3, 4, 5, 6, 7, 15, 16, 17, 18, 19, 20, 21, 22, 23, 24, 25, 26, 31, 32, 33, 34, 35, 36, [invAb] at 3' end, other sugars and backbone not given here) [compound 22952]”, the “% Substrate Cleaved in 3 hours” value is reported as 86.96%. In the case of “22976 (AAGAGGAGGCTAGCTACAACGAGCGGCGAN; 3' inverted abasic cap (B); Description of Artificial Sequence: Nucleic Acid; misc_feature (30)..(30): n stands for inverted deoxyabasic derivative; misc_feature (1)..(7): 2'-O-Methyl; misc_feature (23)..(29): 2'-O-Methyl) [compound 22976]”, the “% Substrate Cleaved in 3 hours” value is reported as 66.06%. With “22977 (AAGGAGAGGCTAGCTACAACGAGAAGGCGN; 3' inverted abasic cap (B); Description of Artificial Sequence: Nucleic Acid; misc_feature (30)..(30): n stands for inverted deoxyabasic derivative; misc_feature (1)..(7): 2'-O-Methyl; misc_feature (23)..(29): 2'-O-Methyl) [compound 22977]” the “% Substrate Cleaved in 3 hours” value was 71.28%. With “22978 (AGGAGGAGGCTAGCTACAACGAGAGAGAGN; 3' inverted abasic cap (B); Description of Artificial Sequence: Nucleic Acid; misc_feature (1)..(7): 2'-O-Methyl; misc_feature (23)..(29): 2'-O-Methyl; misc_feature (30)..(30): n stands for inverted deoxyabasic derivative) [compound 22978]” the “% Substrate Cleaved in 3 hours” value was 61.60%. “22979 (AGGAGUAGGCTAGCTACAACGAGUGGAGGN; 3' inverted abasic cap (B); Description of Artificial Sequence: Nucleic Acid; misc_feature (30)..(30): n stands for inverted deoxyabasic derivative; misc_feature (1)..(7): 2'-O-Methyl; misc_feature (23)..(29): 2'-O-Methyl) [compound 22979]” was tested, and the “% Substrate Cleaved in 3 hours” value was 85.53%. “22980 (GUUGUGAGGCTAGCTACAACGAUUGGAGGN; 3' inverted abasic cap (B); Description of Artificial Sequence: Nucleic Acid; misc_feature (30)..(30): n stands for inverted deoxyabasic derivative; misc_feature (1)..(7): 2'-O-Methyl; misc_feature (23)..(29): 2'-O-Methyl) [compound 22980]” was tested, and the “% Substrate Cleaved in 3 hours” value was 34.60%.
